From article PMC10866072, “Design, synthesis, molecular modelling and biological evaluation of novel 6-amino-5-cyano-2-thiopyrimidine derivatives as potent anticancer agents against leukemia and apoptotic inducers” (Journal of Enzyme Inhibition and Medicinal Chemistry, 2024)

Tests used:
[1] = test system: TK-10; format: cell-based; settings: Homo sapiens, one dose 10^-5 M, 48 h
[2] = test system: RPMI-8226; format: cell-based; settings: Homo sapiens, one dose 10^-5 M, 48 h
[3] = test system: HOP-92; format: cell-based; settings: Homo sapiens, one dose 10^-5 M, 48 h
[4] = test system: HT29; format: cell-based; settings: Homo sapiens, HT-29, one dose 10^-5 M, 48 h
[5] = test system: A498; format: cell-based; settings: Homo sapiens, one dose 10^-5 M, 48 h
[6] = test system: ACHN; format: cell-based; settings: Homo sapiens, one dose 10^-5 M, 48 h
[7] = test system: NCI-H23; format: cell-based; settings: Homo sapiens, one dose 10^-5 M, 48 h, read-out: % growth
[8] = test system: SNB-19; format: cell-based; settings: Homo sapiens, one dose 10^-5 M, 48 h, read-out: % growth
[9] = test system: NCI/ADR-RES; format: cell-based; settings: Homo sapiens, one dose 10^-5 M, 48 h
[10] = test system: SK-OV-3; format: cell-based; settings: Homo sapiens, one dose 10^-5 M, 48 h
[11] = test system: UACC-257; format: cell-based; settings: Homo sapiens, one dose 10^-5 M, 48 h
[12] = test system: SF-295; format: cell-based; settings: Homo sapiens, one dose 10^-5 M, 48 h
[13] = test system: MDA-MB-435; format: cell-based; settings: Homo sapiens, one dose 10^-5 M, 48 h, read-out: % growth
[14] = test system: MDA-MB-468; format: cell-based; settings: Homo sapiens, one dose 10^-5 M, 48 h
[15] = test system: KM12; format: cell-based; settings: Homo sapiens, one dose 10^-5 M, 48 h
[16] = test system: IGROV1; format: cell-based; settings: Homo sapiens, IGROV-1, one dose 10^-5 M, 48 h, read-out: % growth
[17] = test system: SW-620; format: cell-based; settings: Homo sapiens, one dose 10^-5 M, 48 h
[18] = test system: HL-60(TB); format: cell-based; settings: Homo sapiens, one dose 10^-5 M, 48 h
[19] = test system: SK-MEL-2; format: cell-based; settings: Homo sapiens, one dose 10^-5 M, 48 h
[20] = test system: HOP-62; format: cell-based; settings: Homo sapiens, one dose 10^-5 M, 48 h
[21] = test system: T-47D; format: cell-based; settings: Homo sapiens, T47D, one dose 10^-5 M, 48 h, read-out: % growth
[22] = test system: HCT-15; format: cell-based; settings: Homo sapiens, one dose 10^-5 M, 48 h, read-out: % growth
[23] = test system: COLO 205; format: cell-based; settings: Homo sapiens, one dose 10^-5 M, 48 h
[24] = test system: SNB-75; format: cell-based; settings: Homo sapiens, one dose 10^-5 M, 48 h
[25] = test system: OVCAR-5; format: cell-based; settings: Homo sapiens, one dose 10^-5 M, 48 h
[26] = test system: K-562; format: cell-based; settings: Homo sapiens, K562, one dose 10^-5 M, 48 h
[27] = test system: NCI-H226; format: cell-based; settings: Homo sapiens, one dose 10^-5 M, 48 h
[28] = test system: LOX IMVI; format: cell-based; settings: Homo sapiens, one dose 10^-5 M, 48 h, read-out: % growth
[29] = test system: SF-268; format: cell-based; settings: Homo sapiens, one dose 10^-5 M, 48 h, read-out: % growth
[30] = test system: PC-3; format: cell-based; settings: Homo sapiens, one dose 10^-5 M, 48 h
[31] = test system: SK-MEL-28; format: cell-based; settings: Homo sapiens, one dose 10^-5 M, 48 h
[32] = test system: HS 578T; format: cell-based; settings: Homo sapiens; one dose 10^-5 M, 48 h; HS 578T; read-out: % growth
[33] = test system: CAKI-1; format: cell-based; settings: Homo sapiens, CAKI-1, 48 h, one dose 10^-5 M, 48 h
[34] = test system: NCI-H460; format: cell-based; settings: Homo sapiens, one dose 10^-5 M, 48 h, read-out: % growth
[35] = test system: U251; format: cell-based; settings: Homo sapiens, U-251, one dose 10^-5 M, 48 h
[36] = test system: A549/ATCC; format: cell-based; settings: Homo sapiens, one dose 10^-5 M, 48 h
[37] = test system: BT-549; format: cell-based; settings: Homo sapiens, one dose 10^-5 M, 48 h
[38] = test system: HCT-116; format: cell-based; settings: Homo sapiens, one dose 10^-5 M, 48 h, read-out: % growth
[39] = test system: OVCAR-4; format: cell-based; settings: Homo sapiens, one dose 10^-5 M, 48 h
[40] = test system: SK-MEL-5; format: cell-based; settings: Homo sapiens, one dose 10^-5 M, 48 h, read-out: % growth
[41] = test system: MALME-3M; format: cell-based; settings: Homo sapiens, one dose 10^-5 M, 48 h
[42] = test system: OVCAR-8; format: cell-based; settings: Homo sapiens, one dose 10^-5 M, 48 h
[43] = test system: SR; format: cell-based; settings: Homo sapiens, one dose 10^-5 M, 48 h
[44] = test system: 786-0; format: cell-based; settings: Homo sapiens, one dose 10^-5 M, 48 h
[45] = test system: UO-31; format: cell-based; settings: Homo sapiens, UO-31, 48 h, one dose 10^-5 M, 48 h
[46] = test system: CCRF-CEM; format: cell-based; settings: Homo sapiens, one dose 10^-5 M, 48 h
[47] = test system: EKVX; format: cell-based; settings: Homo sapiens, one dose 10^-5 M, 48 h
[48] = test system: NCI-H522; format: cell-based; settings: Homo sapiens, one dose 10^-5 M, 48 h
[49] = test system: SF-539; format: cell-based; settings: Homo sapiens, one dose 10^-5 M, 48 h
[50] = test system: full NCI 60 cell lines panel; settings: for activity at 10 µM: Homo sapiens, 60 cell, 48 h, read-out: Mean % growth; for activity on all 60 cancer cell lines tested (in words): one dose
[51] = test system: HCC-2998; format: cell-based; settings: Homo sapiens, one dose 10^-5 M, 48 h
[52] = test system: MOLT-4; format: cell-based; settings: Homo sapiens, one dose 10^-5 M, 48 h, read-out: % growth
[53] = test system: M14; format: cell-based; settings: Homo sapiens, one dose 10^-5 M, 48 h
[54] = test system: MDA-MB-231/ATCC; format: cell-based; settings: Homo sapiens, one dose 10^-5 M, 48 h
[55] = test system: MCF7; format: cell-based; settings: Homo sapiens, one dose 10^-5 M, 48 h, read-out: % growth
[56] = test system: OVCAR-3; format: cell-based; settings: Homo sapiens, one dose 10^-5 M, 48 h
[57] = test system: SN12C; format: cell-based, human; settings: Homo sapiens, one dose 10^-5 M, 48 h
[58] = test system: UACC-62; format: cell-based; settings: Homo sapiens, one dose 10^-5 M, 48 h
[59] = test system: DU-145; format: cell-based; settings: Homo sapiens, one dose 10^-5 M, 48 h

SMILES: COc1ccc(/C=N\NC(=N)c2c(N)nc(S)nc2-c2ccc(N(C)C)cc2)cc1 [Compound 4d, 4-amino-N'-[(1Z)-(4-methoxyphenyl)methylene]-6-[4-(dimethylamino)phenyl]-2-mercapto pyrimidine-5-carboximidohydrazide]
- % cell growth at 10 µM [1]: 103%
- % growth at 10 µM [2]: 86.5%
- % growth at 10 µM [3]: 109%
- % growth at 10 µM [4]: 100%
- % growth at 10 µM [5]: 119%
- % growth at 10 µM [6]: 103%
- activity at 10 µM [7]: 103%
- activity at 10 µM [8]: 101%
- cell growth percent at 10 µM [9]: 107%
- % growth at 10 µM [10]: 110%
- percent cell growth at 10 µM [11]: 106%
- % cell growth at 10 µM [12]: 104%
- activity at 10 µM [13]: 96.7%
- percent cell growth at 10 µM [14]: 114%
- % growth at 10 µM [15]: 93.2%
- activity at 10 µM [16]: 104%
- % growth at 10 µM [17]: 103%
- % growth at 10 µM [18]: 93.8%
- % growth at 10 µM [19]: 109%
- % growth at 10 µM [20]: 106%
- activity at 10 µM [21]: 98.7%
- activity at 10 µM [22]: 98.2%
- % growth at 10 µM [23]: 118%
- % growth at 10 µM [24]: 101%
- percent cell growth at 10 µM [25]: 103%
- % growth at 10 µM [26]: 101%
- % growth at 10 µM [27]: 103%
- activity at 10 µM [28]: 101%
- activity at 10 µM [29]: 97%
- percent cell growth at 10 µM [30]: 88.5%
- % cell growth at 10 µM [31]: 105%
- activity at 10 µM [32]: 112%
- % growth at 10 µM [33]: 97.5%
- activity at 10 µM [34]: 106%
- % growth at 10 µM [35]: 106%
- % growth at 10 µM [36]: 103%
- % cell growth at 10 µM [37]: 102%
- activity at 10 µM [38]: 108%
- % growth at 10 µM [39]: 96.8%
- activity at 10 µM [40]: 102%
- % growth at 10 µM [41]: 98.4%
- % growth of cells at 10 µM [42]: 104%
- percent cell growth at 10 µM [43]: 102%
- % growth at 10 µM [44]: 98.3%
- % cell growth at 10 µM [45]: 72%
- % cell growth at 10 µM [46]: 78.9%
- % cell growth at 10 µM [47]: 99%
- % growth at 10 µM [48]: 93.3%
- % growth at 10 µM [49]: 108%
- activity at 10 µM [50]: 101%
- activity on all 60 cancer cell lines tested (in words) [50]: weak activity
- % growth at 10 µM [51]: 108%
- activity at 10 µM [52]: 101%
- % growth at 10 µM [53]: 96.1%
- % growth at 10 µM [54]: 103%
- activity at 10 µM [55]: 95.2%
- % growth at 10 µM [56]: 105%
- % growth at 10 µM [57]: 100%
- % growth at 10 µM [58]: 94.3%
- % growth at 10 µM [59]: 106%

SMILES: CN(C)c1ccc(-c2nc(S)nc(N)c2C(=N)NN=Cc2ccc(Br)cc2)cc1 [Compound 4e, 4-amino-N'-[(4-bromophenyl)methylene]-6-[4-(dimethylamino)phenyl]-2-mercapto pyrimidine-5-carboximidohydrazide]
- % cell growth at 10 µM [1]: 115%
- % growth at 10 µM [2]: 84.4%
- % growth at 10 µM [3]: 112%
- % growth at 10 µM [4]: 104%
- % growth at 10 µM [5]: 118%
- % growth at 10 µM [6]: 105%
- activity at 10 µM [7]: 99.3%
- activity at 10 µM [8]: 99.4%
- cell growth percent at 10 µM [9]: 102%
- % growth at 10 µM [10]: 124%
- percent cell growth at 10 µM [11]: 109%
- % cell growth at 10 µM [12]: 104%
- activity at 10 µM [13]: 101%
- percent cell growth at 10 µM [14]: 111%
- % growth at 10 µM [15]: 110%
- activity at 10 µM [16]: 102%
- % growth at 10 µM [17]: 107%
- % growth at 10 µM [18]: 91.6%
- % growth at 10 µM [19]: 107%
- % growth at 10 µM [20]: 108%
- activity at 10 µM [21]: 97.5%
- activity at 10 µM [22]: 102%
- % growth at 10 µM [23]: 161%
- % growth at 10 µM [24]: 114%
- percent cell growth at 10 µM [25]: 104%
- % growth at 10 µM [26]: 99.6%
- % growth at 10 µM [27]: 95.7%
- activity at 10 µM [28]: 98.6%
- activity at 10 µM [29]: 101%
- percent cell growth at 10 µM [30]: 91%
- % cell growth at 10 µM [31]: 104%
- activity at 10 µM [32]: 108%
- % growth at 10 µM [33]: 99.6%
- activity at 10 µM [34]: 107%
- % growth at 10 µM [35]: 112%
- % growth at 10 µM [36]: 108%
- % cell growth at 10 µM [37]: 107%
- activity at 10 µM [38]: 101%
- % growth at 10 µM [39]: 102%
- activity at 10 µM [40]: 101%
- % growth at 10 µM [41]: 98.6%
- % growth of cells at 10 µM [42]: 113%
- percent cell growth at 10 µM [43]: 91.5%
- % growth at 10 µM [44]: 103%
- % cell growth at 10 µM [45]: 69.9%
- % cell growth at 10 µM [46]: 88.8%
- % cell growth at 10 µM [47]: 98.6%
- % growth at 10 µM [48]: 98.5%
- % growth at 10 µM [49]: 101%
- activity at 10 µM [50]: 104%
- activity on all 60 cancer cell lines tested (in words) [50]: weak activity
- % growth at 10 µM [51]: 112%
- activity at 10 µM [52]: 103%
- % growth at 10 µM [53]: 98.9%
- % growth at 10 µM [54]: 102%
- activity at 10 µM [55]: 93.9%
- % growth at 10 µM [56]: 110%
- % growth at 10 µM [57]: 102%
- % growth at 10 µM [58]: 94%
- % growth at 10 µM [59]: 109%
